Laboratory results reported in patent US11965039B2, “Compstatin analogues and their medical uses” (priority 2018, dated 2024).
Starred links: 1 amine or outer side, 2 acyl side, 3 side chain; linkers in the order of their positions; H or OH if unused. Positions of bridges follow the written chain, without caps; N, C: chain ends. Non-standard residues stand in square brackets, D forms with d. Residues, ends and D or L forms follow the SMILES beside them. Groups on a side chain read outwards from the residue. *: point of attachment. Trp(1-Me) = Cn1cc(C[C@H](N)C(=O)O)c2ccccc21; C18 diacid = O=C(O)CCCCCCCCCCCCCCCCC(=O)*; γGlu = O=C(O)[C@H](CCC(=O)[*:2])N[*:1]; AEEA = NCCOCCOCC(=O)O; Sar = CNCC(=O)O

System: classical complement pathway
Test: In vitro haemolysis assay (inhibition of classical complement pathway)
Assay type: cell-based, human
Settings: human serum, sensitized sheep red blood cells; Table 3, given as upper bounds; read-out: IC50, inhibition of hemolysis
Procedure, shortened: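 Compound dilutions preincubated 15 min at room temperature with diluted human serum (titrated per batch for 70-90% maximal haemolysis), then antibody-sensitized sheep RBC (10^7/well) added for 30 min at 37 °C in Tris/casein buffer, pH 7.4. Stopped with EDTA; haemolysis read at 405 nm; IC50 by 4PL fit.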

SMILES | IC50
CC[C@H](C)[C@@H]1NC(=O)[C@@H](NC(=O)[C@H](Cc2ccc(O)cc2)NC(=O)[C@H](CCC(=O)O)NC(=O)[C@H](CO)NC(C)=O)CSSC[C@@H](C(=O)N(C)CC(=O)N[C@@H](CCC(=O)O)C(=O)NCC(=O)N[C@@H](CCC(=O)O)C(=O)NCCOCCOCC(=O)NCCOCCOCC(=O)N[C@@H](CCCCNC(=O)CC[C@H](NC(=O)CNC(=O)CC[C@H](NC(=O)CCCCCCCCCCCCCCCCC(=O)O)C(=O)O)C(=O)O)C(N)=O)NC(=O)[C@H](CCCNC(=N)N)NC(=O)[C@H](Cc2c[nH]cn2)NC(=O)[C@H](CCC(=O)O)NC(=O)CNC(=O)[C@H](Cc2c[nH]c3ccccc23)NC(=O)[C@H](CC(=O)O)NC(=O)[C@H](CCC(N)=O)NC(=O)[C@H](Cc2cn(C)c3ccccc23)NC1=O [Compound 117] (Ac-SEYCI[Trp(1-Me)]QDWGEHRC[Sar]EGE[AEEA][AEEA]K([γGlu-Gly-γGlu-C18 diacid])-NH2; disulfide 4-14) | < 250 nM
CC[C@H](C)[C@@H]1NC(=O)[C@@H](NC(=O)[C@H](Cc2ccccc2)NC(=O)[C@H](CCC(=O)O)NC(=O)[C@H](CO)NC(C)=O)CSSC[C@@H](C(=O)N(C)CC(=O)N[C@@H](CCC(=O)O)C(=O)NCC(=O)N[C@@H](C)C(=O)N[C@@H](CCCCNC(=O)COCCOCCNC(=O)CC[C@H](NC(=O)COCCOCCNC(=O)CNC(=O)CC[C@H](NC(=O)CCCCCCCCCCCCCCCCC(=O)O)C(=O)O)C(=O)O)C(N)=O)NC(=O)[C@H](CCCNC(=N)N)NC(=O)[C@H](Cc2c[nH]cn2)NC(=O)[C@H](CCC(=O)O)NC(=O)CNC(=O)[C@H](Cc2c[nH]c3ccccc23)NC(=O)[C@H](CC(=O)O)NC(=O)[C@H](CCC(N)=O)NC(=O)[C@H](Cc2cn(C)c3ccccc23)NC1=O [Compound 119] (Ac-SEFCI[Trp(1-Me)]QDWGEHRC[Sar]EGAK([AEEA-γGlu-AEEA-Gly-γGlu-C18 diacid])-NH2; disulfide 4-14) | < 100 nM
CC[C@H](C)[C@@H]1NC(=O)[C@@H](NC(=O)[C@H](Cc2ccccc2)NC(=O)[C@H](CCC(=O)O)NC(=O)[C@H](CO)NC(C)=O)CSSC[C@@H](C(=O)N(C)CC(=O)N[C@@H](CCC(=O)O)C(=O)NCC(=O)N[C@@H](C)C(=O)N[C@@H](CCCCNC(=O)COCCOCCNC(=O)CC[C@H](NC(=O)COCCOCCNC(=O)CNC(=O)CC[C@H](NC(=O)CCCCCCCCCCCCCCCCC(=O)O)C(=O)O)C(=O)O)C(N)=O)NC(=O)[C@H](CCCNC(=N)N)NC(=O)[C@H](Cc2c[nH]cn2)NC(=O)[C@H](CCC(=O)O)NC(=O)CNC(=O)[C@H](Cc2c[nH]c3ccccc23)NC(=O)[C@H](CCC(=O)O)NC(=O)[C@H](CCC(N)=O)NC(=O)[C@H](Cc2cn(C)c3ccccc23)NC1=O [Compound 120] (Ac-SEFCI[Trp(1-Me)]QEWGEHRC[Sar]EGAK([AEEA-γGlu-AEEA-Gly-γGlu-C18 diacid])-NH2; disulfide 4-14) | < 250 nM
CC[C@H](C)[C@@H]1NC(=O)[C@@H](NC(=O)[C@H](Cc2ccc(O)cc2)NC(=O)[C@H](CCC(=O)O)NC(=O)[C@H](CO)NC(C)=O)CSSC[C@@H](C(=O)N(C)CC(=O)N[C@@H](CCC(=O)O)C(=O)N[C@@H](CCCCN)C(=O)N[C@@H](CCC(=O)N[C@@H](C)C(=O)N[C@@H](CCCCNC(=O)COCCOCCNC(=O)CC[C@H](NC(=O)COCCOCCNC(=O)CNC(=O)CC[C@H](NC(=O)CCCCCCCCCCCCCCCCC(=O)O)C(=O)O)C(=O)O)C(N)=O)C(=O)O)NC(=O)[C@H](CCCNC(=N)N)NC(=O)[C@H](Cc2c[nH]cn2)NC(=O)[C@H](CCC(=O)O)NC(=O)CN(C)C(=O)[C@H](Cc2c[nH]c3ccccc23)NC(=O)[C@H](CCC(=O)O)NC(=O)[C@H](CCC(N)=O)NC(=O)[C@H](Cc2cn(C)c3ccccc23)NC1=O [Compound 121, Ac-SEYC(1)I[1-Me-Trp]QEW[Sar]EHRC(1)[Sar]EK[γGlu]A-K([17-carboxy-heptadecanoyl][γGlu]G[Peg3][γGlu][Peg3])-NH2] (Ac-SEYCI[Trp(1-Me)]QEW[Sar]EHRC[Sar]EK[γGlu]AK([AEEA-γGlu-AEEA-Gly-γGlu-C18 diacid])-NH2; disulfide 4-14) | < 250 nM
CC[C@H](C)[C@@H]1NC(=O)[C@@H](NC(=O)[C@H](Cc2ccc(O)cc2)NC(=O)[C@H](CCC(=O)O)NC(=O)[C@H](CO)NC(C)=O)CSSC[C@@H](C(=O)N(C)CC(=O)N[C@@H](CCC(=O)O)C(=O)NCC(=O)N[C@@H](C)C(=O)N[C@@H](CCCCNC(=O)COCCOCCNC(=O)CC[C@H](NC(=O)COCCOCCNC(=O)CNC(=O)CC[C@H](NC(=O)CCCCCCCCCCCCCCCCC(=O)O)C(=O)O)C(=O)O)C(N)=O)NC(=O)[C@H](CCCNC(=N)N)NC(=O)[C@H](Cc2c[nH]cn2)NC(=O)[C@H](CCC(=O)O)NC(=O)CNC(=O)[C@H](Cc2c[nH]c3ccccc23)NC(=O)[C@H](CCC(=O)O)NC(=O)[C@H](CCC(N)=O)NC(=O)[C@H](Cc2cn(C)c3ccccc23)NC1=O [Compound 122] (Ac-SEYCI[Trp(1-Me)]QEWGEHRC[Sar]EGAK([AEEA-γGlu-AEEA-Gly-γGlu-C18 diacid])-NH2; disulfide 4-14) | < 500 nM
CC[C@H](C)[C@@H]1NC(=O)[C@@H](NC(=O)[C@H](Cc2ccccc2)NC(=O)[C@H](CCC(=O)O)NC(=O)[C@H](CO)NC(C)=O)CSSC[C@@H](C(=O)N(C)CC(=O)N[C@@H](CCC(=O)O)C(=O)NCC(=O)N[C@@H](CCC(=O)O)C(=O)NCCOCCOCC(=O)NCCOCCOCC(=O)N[C@@H](CCCCNC(=O)CC[C@H](NC(=O)CNC(=O)CC[C@H](NC(=O)CCCCCCCCCCCCCCCCC(=O)O)C(=O)O)C(=O)O)C(N)=O)NC(=O)[C@H](CCCNC(=N)N)NC(=O)[C@H](Cc2c[nH]cn2)NC(=O)[C@H](CCC(=O)O)NC(=O)CNC(=O)[C@H](Cc2c[nH]c3ccccc23)NC(=O)[C@H](CC(=O)O)NC(=O)[C@H](CCC(N)=O)NC(=O)[C@H](Cc2cn(C)c3ccccc23)NC1=O [Compound 123] (Ac-SEFCI[Trp(1-Me)]QDWGEHRC[Sar]EGE[AEEA][AEEA]K([γGlu-Gly-γGlu-C18 diacid])-NH2; disulfide 4-14) | < 100 nM
CC[C@H](C)[C@@H]1NC(=O)[C@@H](NC(=O)[C@H](Cc2ccccc2)NC(=O)[C@H](CCC(=O)O)NC(=O)[C@H](CO)NC(C)=O)CSSC[C@@H](C(=O)N(C)CC(=O)N[C@@H](CCC(=O)O)C(=O)NCC(=O)N[C@@H](CCC(=O)O)C(=O)NCCOCCOCC(=O)NCCOCCOCC(=O)N[C@@H](CCCCNC(=O)CC[C@H](NC(=O)CNC(=O)CC[C@H](NC(=O)CCCCCCCCCCCCCCCCC(=O)O)C(=O)O)C(=O)O)C(N)=O)NC(=O)[C@H](CCCNC(=N)N)NC(=O)[C@H](Cc2c[nH]cn2)NC(=O)[C@H](CCC(=O)O)NC(=O)CNC(=O)[C@H](Cc2c[nH]c3ccccc23)NC(=O)[C@H](CCC(=O)O)NC(=O)[C@H](CCC(N)=O)NC(=O)[C@H](Cc2cn(C)c3ccccc23)NC1=O [Compound 124] (Ac-SEFCI[Trp(1-Me)]QEWGEHRC[Sar]EGE[AEEA][AEEA]K([γGlu-Gly-γGlu-C18 diacid])-NH2; disulfide 4-14) | < 100 nM
